Measured values as given in US20060069132A1, “Azolecarboxamide herbicides” (priority 2004, published 2006).

Columns and labels:
barnyardgrass [1] = assay: Test B pre-/postemergence herbicide test; type: in vivo, Echinochloa crus-galli
Outline: (§1)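 Test chemicals in a non-phytotoxic solvent mixture with surfactant were applied preemergence to seeded species and postemergence to plants 2-18 cm tall (1- to 4-leaf stage); rice and barnyardgrass were also tested in a flooded paddy at the 2-leaf stage. Visual rating versus controls after 13-15 days in greenhouse, scale 0 (no effect) to 100 (complete control).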

Surinam grass = assay: Test B pre-/postemergence herbicide test; type: in vivo, Urochloa decumbens
Outline: (§2)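 Evaluation is visual, comparing treated with control plants on a scale where 0 means no effect and 100 means full control. Treatments were preemergence, or postemergence on seedlings 2–18 cm tall, and held 13–15 days in the greenhouse.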

cocklebur = assay: Test B pre-/postemergence herbicide test; type: in vivo, Xanthium strumarium
Outline: as §1

corn = assay: Test B pre-/postemergence herbicide test; type: in vivo, Zea mays
Outline: as §2

large crabgrass = assay: Test B pre-/postemergence herbicide test; type: in vivo, Digitaria sanguinalis
Outline: as §2

giant foxtail = assay: Test B pre-/postemergence herbicide test; type: in vivo, Setaria faberi
Outline: as §2

pigweed = assay: Test B pre-/postemergence herbicide test; type: in vivo, Amaranthus retroflexus
Outline: as §2

velvetleaf = assay: Test B pre-/postemergence herbicide test; type: in vivo, Abutilon theophrasti
Outline: as §2

blackgrass = assay: Test B postemergence herbicide test; type: in vivo, Alopecurus myosuroides
Outline: (§3)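 Paddy species grown to the 2-leaf stage under flooding; blackgrass sprayed postemergence at 2–18 cm (1- to 4-leaf stage). Plants kept in a greenhouse for 13 to 15 days, then visually rated against controls on 0 (no effect) to 100 (complete control).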

wheat = assay: Test B postemergence herbicide test; type: in vivo, Triticum aestivum; design: key to Wheat plant response rating: 0 = no effect, 100 = complete control
Outline: (§4)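 Greenhouse test; postemergence application to plants at 1–4 leaves (2–18 cm); paddy species at 2 leaves; evaluated visually vs controls at 13–15 days; scale 0–100 (100 = complete control).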

wild oat = assay: Test B postemergence herbicide test; type: in vivo, Avena fatua
Outline: as §4

rice = assay: Test B flooded paddy test; type: in vivo, Oryza sativa; conditions: 1000 g ai/ha, scale 0 to 100 (0 no effect, 100 complete control)
Outline: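 Each value is a visual 0–100 response rating taken against controls 13 to 15 days after treatment in the greenhouse. Plants received formulated chemical postemergence at the 1- to 4-leaf stage or, in flooded paddy, at the 2-leaf stage.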

[2] = system: small flower umbrella sedge; assay: Test B flooded paddy test; type: in vivo, Cyperus difformis; conditions: 1000 g ai/ha, scale 0 to 100 (0 no effect, 100 complete control)
Outline: as §3

ducksalad = assay: Test B flooded paddy test; type: in vivo, Heteranthera limosa; conditions: 1000 g ai/ha, scale 0 to 100 (0 no effect, 100 complete control)
Outline: as §3

barnyardgrass [3] = assay: Test B flooded paddy test; type: in vivo, Echinochloa crus-galli; conditions: 1000 g ai/ha, scale 0 to 100 (0 no effect, 100 complete control)
Outline: as §3

[4] = 125 g ai/ha; 0 = no effect, 100 = complete control; preemergence
[5] = 500 g ai/ha; visual rating, 0 = no effect, 100 = complete control; preemergence
[6] = postemergence, 125 g ai/ha; visual rating, scale 0 (no effect) to 100 (complete control)
[7] = postemergence, 500 g ai/ha; scale 0 to 100, 0 is no effect, 100 is complete control
[8] = 125 g ai/ha; visual rating, scale 0 (no effect) to 100 (complete control); postemergence

SMILES: CCn1nc(C(C)(C)C)cc1C(=O)Nc1cccc(OC(C)C)c1 [Compound 273]
- Barnyardgrass plant response rating (0 to 100 scale) (barnyardgrass [1]; [4]): 30
- Plant response rating, Barnyardgrass (barnyardgrass [1]; [5]): 90
- Barnyardgrass plant response rating (barnyardgrass [1]; [6]): 20
- Barnyardgrass plant response rating (barnyardgrass [1]; [7]): 70
- Surinam Grass plant response rating (0 to 100 scale) (Surinam grass; [4]): 20
- Plant response rating, Surinam Grass (Surinam grass; [5]): 50
- Surinam Grass plant response rating (Surinam grass; [6]): 20
- Surinam Grass plant response rating (Surinam grass; [7]): 40
- Cocklebur plant response rating (0 to 100 scale) (cocklebur; [4]): 0
- Plant response rating, Cocklebur (cocklebur; [5]): 0
- Cocklebur plant response rating (cocklebur; [6]): 20
- Cocklebur plant response rating (cocklebur; [7]): 80
- Corn plant response rating (0 to 100 scale) (corn; [4]): 0
- Plant response rating, Corn (corn; [5]): 30
- Corn plant response rating (corn; [6]): 10
- Corn plant response rating (corn; [7]): 20
- Crabgrass, Large plant response rating (0 to 100 scale) (large crabgrass; [4]): 80
- Plant response rating, Crabgrass, Large (large crabgrass; [5]): 100
- Crabgrass, Large plant response rating (large crabgrass; [6]): 30
- Crabgrass, Large plant response rating (large crabgrass; [7]): 50
- Foxtail, Giant plant response rating (0 to 100 scale) (giant foxtail; [4]): 50
- Plant response rating, Foxtail, Giant (giant foxtail; [5]): 90
- Foxtail, Giant plant response rating (giant foxtail; [6]): 10
- Foxtail, Giant plant response rating (giant foxtail; [7]): 20
- Pigweed plant response rating (0 to 100 scale) (pigweed; [4]): 70
- Plant response rating, Pigweed (pigweed; [5]): 100
- Pigweed plant response rating (pigweed; [6]): 80
- Pigweed plant response rating (pigweed; [7]): 90
- Velvetleaf plant response rating (0 to 100 scale) (velvetleaf; [4]): 10
- Plant response rating, Velvetleaf (velvetleaf; [5]): 40
- Velvetleaf plant response rating (velvetleaf; [6]): 40
- Velvetleaf plant response rating (velvetleaf; [7]): 70
- Blackgrass plant response rating (blackgrass; [6]): 50
- Blackgrass plant response rating (blackgrass; [7]): 70
- Wheat plant response rating (wheat; [6]): 30
- Wheat plant response rating (wheat; [7]): 40
- Oat, Wild plant response rating (wild oat; [6]): 30
- Oat, Wild plant response rating (wild oat; [7]): 50
- Rice plant response rating (rice): 40
- Sedge, Umbrella plant response rating [2]: 80
- Ducksalad plant response rating (ducksalad): 90
- Barnyardgrass plant response rating (barnyardgrass [3]): 60

SMILES: CCn1nc(C(C)(C)C)cc1C(=O)Nc1cccc(C(=O)N2CC=CC2)c1 [Compound 286]
- Barnyardgrass plant response rating (0 to 100 scale) (barnyardgrass [1]; [4]): 30
- Plant response rating, Barnyardgrass (barnyardgrass [1]; [5]): 90
- Barnyardgrass plant response rating (barnyardgrass [1]; [6]): 0
- Barnyardgrass plant response rating (barnyardgrass [1]; [7]): 0
- Surinam Grass plant response rating (0 to 100 scale) (Surinam grass; [4]): 10
- Plant response rating, Surinam Grass (Surinam grass; [5]): 60
- Surinam Grass plant response rating (Surinam grass; [6]): 10
- Surinam Grass plant response rating (Surinam grass; [7]): 20
- Cocklebur plant response rating (0 to 100 scale) (cocklebur; [4]): 0
- Plant response rating, Cocklebur (cocklebur; [5]): 0
- Cocklebur plant response rating (cocklebur; [6]): 10
- Cocklebur plant response rating (cocklebur; [7]): 20
- Corn plant response rating (0 to 100 scale) (corn; [4]): 0
- Plant response rating, Corn (corn; [5]): 50
- Corn plant response rating (corn; [6]): 0
- Corn plant response rating (corn; [7]): 10
- Crabgrass, Large plant response rating (0 to 100 scale) (large crabgrass; [4]): 0
- Plant response rating, Crabgrass, Large (large crabgrass; [5]): 100
- Crabgrass, Large plant response rating (large crabgrass; [6]): 0
- Crabgrass, Large plant response rating (large crabgrass; [7]): 10
- Foxtail, Giant plant response rating (0 to 100 scale) (giant foxtail; [4]): 10
- Plant response rating, Foxtail, Giant (giant foxtail; [5]): 90
- Foxtail, Giant plant response rating (giant foxtail; [6]): 20
- Foxtail, Giant plant response rating (giant foxtail; [7]): 50
- Pigweed plant response rating (0 to 100 scale) (pigweed; [4]): 100
- Plant response rating, Pigweed (pigweed; [5]): 100
- Pigweed plant response rating (pigweed; [6]): 60
- Pigweed plant response rating (pigweed; [7]): 100
- Velvetleaf plant response rating (0 to 100 scale) (velvetleaf; [4]): 0
- Plant response rating, Velvetleaf (velvetleaf; [5]): 60
- Velvetleaf plant response rating (velvetleaf; [6]): 10
- Velvetleaf plant response rating (velvetleaf; [7]): 60
- Blackgrass plant response rating (blackgrass; [6]): 10
- Blackgrass plant response rating (blackgrass; [7]): 20
- Wheat plant response rating (wheat; [6]): 20
- Wheat plant response rating (wheat; [7]): 30
- Oat, Wild plant response rating (wild oat; [6]): 30
- Oat, Wild plant response rating (wild oat; [7]): 40
- Rice plant response rating (rice): 70
- Sedge, Umbrella plant response rating [2]: 80
- Ducksalad plant response rating (ducksalad): 90
- Barnyardgrass plant response rating (barnyardgrass [3]): 90

SMILES: CCn1nc(C(C)(C)C)cc1C(=O)Nc1cncc(C(=O)N(C)C)n1 [Compound 287]
- Barnyardgrass plant response rating (0 to 100 scale) (barnyardgrass [1]; [4]): 80
- Barnyardgrass plant response rating (barnyardgrass [1]; [8]): 0
- Plant response rating, Barnyardgrass (barnyardgrass [1]; [5]): 100
- Barnyardgrass plant response rating (barnyardgrass [1]; [7]): 20
- Surinam Grass plant response rating (0 to 100 scale) (Surinam grass; [4]): 50
- Surinam Grass plant response rating (Surinam grass; [8]): 0
- Plant response rating, Surinam Grass (Surinam grass; [5]): 80
- Surinam Grass plant response rating (Surinam grass; [7]): 10
- Cocklebur plant response rating (0 to 100 scale) (cocklebur; [4]): 0
- Cocklebur plant response rating (cocklebur; [8]): 10
- Plant response rating, Cocklebur (cocklebur; [5]): 60
- Cocklebur plant response rating (cocklebur; [7]): 10
- Corn plant response rating (0 to 100 scale) (corn; [4]): 0
- Corn plant response rating (corn; [8]): 0
- Plant response rating, Corn (corn; [5]): 30
- Corn plant response rating (corn; [7]): 70
- Crabgrass, Large plant response rating (0 to 100 scale) (large crabgrass; [4]): 70
- Crabgrass, Large plant response rating (large crabgrass; [8]): 0
- Plant response rating, Crabgrass, Large (large crabgrass; [5]): 100
- Crabgrass, Large plant response rating (large crabgrass; [7]): 0
- Foxtail, Giant plant response rating (0 to 100 scale) (giant foxtail; [4]): 10
- Foxtail, Giant plant response rating (giant foxtail; [8]): 20
- Plant response rating, Foxtail, Giant (giant foxtail; [5]): 90
- Foxtail, Giant plant response rating (giant foxtail; [7]): 80
- Pigweed plant response rating (0 to 100 scale) (pigweed; [4]): 90
- Pigweed plant response rating (pigweed; [8]): 20
- Plant response rating, Pigweed (pigweed; [5]): 100
- Pigweed plant response rating (pigweed; [7]): 30
- Velvetleaf plant response rating (velvetleaf; [8]): 0
- Plant response rating, Velvetleaf (velvetleaf; [5]): 100
- Velvetleaf plant response rating (velvetleaf; [7]): 60
- Blackgrass plant response rating (blackgrass; [8]): 10
- Blackgrass plant response rating (blackgrass; [7]): 30
- Wheat plant response rating (wheat; [8]): 10
- Wheat plant response rating (wheat; [7]): 30
- Oat, Wild plant response rating (wild oat; [8]): 20
- Oat, Wild plant response rating (wild oat; [7]): 40
- Rice plant response rating (rice): 70
- Sedge, Umbrella plant response rating [2]: 80
- Ducksalad plant response rating (ducksalad): 80
- Barnyardgrass plant response rating (barnyardgrass [3]): 80

SMILES: CCOC(=O)c1ccc(F)c(NC(=O)c2cc(C3(C)CC3)nn2CC)c1 [Compound 296]
- Barnyardgrass plant response rating (0 to 100 scale) (barnyardgrass [1]; [4]): 30
- Barnyardgrass plant response rating (barnyardgrass [1]; [8]): 30
- Plant response rating, Barnyardgrass (barnyardgrass [1]; [5]): 60
- Barnyardgrass plant response rating (barnyardgrass [1]; [7]): 80
- Surinam Grass plant response rating (0 to 100 scale) (Surinam grass; [4]): 20
- Surinam Grass plant response rating (Surinam grass; [8]): 40
- Plant response rating, Surinam Grass (Surinam grass; [5]): 60
- Surinam Grass plant response rating (Surinam grass; [7]): 50
- Cocklebur plant response rating (0 to 100 scale) (cocklebur; [4]): 0
- Cocklebur plant response rating (cocklebur; [8]): 50
- Plant response rating, Cocklebur (cocklebur; [5]): 0
- Cocklebur plant response rating (cocklebur; [7]): 60
- Corn plant response rating (0 to 100 scale) (corn; [4]): 30
- Corn plant response rating (corn; [8]): 30
- Plant response rating, Corn (corn; [5]): 40
- Corn plant response rating (corn; [7]): 70
- Crabgrass, Large plant response rating (0 to 100 scale) (large crabgrass; [4]): 40
- Crabgrass, Large plant response rating (large crabgrass; [8]): 30
- Plant response rating, Crabgrass, Large (large crabgrass; [5]): 100
- Crabgrass, Large plant response rating (large crabgrass; [7]): 60
- Foxtail, Giant plant response rating (0 to 100 scale) (giant foxtail; [4]): 70
- Foxtail, Giant plant response rating (giant foxtail; [8]): 60
- Plant response rating, Foxtail, Giant (giant foxtail; [5]): 90
- Foxtail, Giant plant response rating (giant foxtail; [7]): 60
- Pigweed plant response rating (0 to 100 scale) (pigweed; [4]): 70
- Pigweed plant response rating (pigweed; [8]): 80
- Plant response rating, Pigweed (pigweed; [5]): 80
- Pigweed plant response rating (pigweed; [7]): 100
- Velvetleaf plant response rating (velvetleaf; [8]): 90
- Plant response rating, Velvetleaf (velvetleaf; [5]): 80
- Velvetleaf plant response rating (velvetleaf; [7]): 100
- Blackgrass plant response rating (blackgrass; [8]): 30
- Blackgrass plant response rating (blackgrass; [7]): 40
- Wheat plant response rating (wheat; [8]): 20
- Wheat plant response rating (wheat; [7]): 30
- Oat, Wild plant response rating (wild oat; [8]): 30
- Oat, Wild plant response rating (wild oat; [7]): 40
- Rice plant response rating (rice): 60
- Sedge, Umbrella plant response rating [2]: 80
- Ducksalad plant response rating (ducksalad): 80
- Barnyardgrass plant response rating (barnyardgrass [3]): 80
